Results from patent publication US20240390434A1, “PROBIOTIC ENHANCERS AND USES THEREOF” (Blis Technologies Limited, priority 2021, published 2024).

Legend:
Format in all cases: cell-based
L. lactis T-21 = assay: Dose response deferred antagonism assay, producer M18; details: 1.5% (w/v) galactose, largest
[1] = test system: S. saprophyticus ATCC 15305; assay: Deferred antagonism assay, producer S. salivarius M18; details: Staphylococcus saprophyticus, ATCC15305, M18, read-out: Size of zone inhibition normalised to control, S. saprophyticus ATCC 15305
Description: (§1) 1-2 producer strain colonies were transferred from a stock plate into 900 μL of suspension solution using a fresh cotton swab. Following this, suspensions were vortexed, and a sample was inoculated onto solid culture media using a fresh cotton swab. The inoculation was a streak that runs diametrically across the agar plate in a 1.5 cm wide strip. The plate was then incubated. Following incubation all visible colonies were removed by swabbing them from the agar surface. The plates were then treated with chloroform by dispensing 2 ml of chloroform onto 4 cm×4 cm piece of cloth and sealing the inverted agar plate on top for 30 minutes. The plates were then air dried for 30 minutes following chloroforming. 1-2 indicator strain colonies were then transferred from a stock plate into complementary suspension solution. The suspensions were then vortexed, and a sample was inoculated onto the same agar surface. These samples were streaked in a perpendicular direction to the initial producer streak.
(§2) Each indicator streak was prepared with fresh a suspension containing cells from a corresponding stock plate containing the indicator strain of interest. Indicator strains suspension samples were transferred using a fresh cotton swab. Results were measured by qualitatively reviewing the subsequent (if any) sizes of the zones of inhibition (ZOI) of indicator strain colony growth. A positive result is when there is a distinctive reduction or complete inhibition of indicator colony growth on the culture medium.
(§3) CABCa agar plates containing various concentrations of saccharide were prepared according to the methods described in Method 1. Producer strains were transferred from stock agar plates into 900 μL THB using a fresh cotton swab. A plastic spread plater was cut to approximately 1.2 cm width and then dipped into ethanol and left to air dry to ensure sterility. A 100 μL sample of the producer strain suspension was then dispensed onto the agar surface in a straight line running diametrically across the agar surface in (approximately) 20 μL spots. The spots were spaced approximately 1.5 cm apart from each other. The plastic spreader was then used to evenly distribute the spots across the agar surface in a 1.5 cm wide strip. This step was taken to ensure an even producer streak was inoculated onto the agar surface and provided an approximate measure of the initial inoculum concentration. Separate plastic spreaders were used for samples containing different producer strains. The samples were left to soak into the agar surface until there was no visible liquid remaining on the agar surface (approximately 20 minutes). Following producer streak preparations, the deferred antagonism assay protocol was followed as per Method 2. Results were recorded by measuring the size of the zone of inhibition (ZOI) in mm.
(§4) A dose response assay was carried out according to method 3 above, except a 1.2 cm streak was used. For the individual saccharide testing the pH of the producer streak was adjusted after the growth of producer to change the acidic conditions.
(§5) A deferred antagonism assay was conducted using K12 or M18 raw ingredient suspended in Todd Hewitt broth (THB). This was spread as a 1.2 cm streak containing approximately 1-2×10^6 cfu down the middle of a CABCa control or CABCa galactose supplemented test plate. After 18 hrs growth at 37° C. with 5% CO2, bacterial growth was removed, and the pH of the agar in the initial streak was measured and adjusted to a pH of 6.5-7.5 using 0.5M sodium carbonate pH11 before sterilizing the agar surface using chloroform vapor. Bacterial test strains were suspended in i-THB before being swabbed across the plates perpendicular to the initial streak. Plates were incubated for a further 18 hrs incubation at 37° C. with 5% CO2 before measuring (mm) any zones of inhibition for each test strain, […]

S. constellatus T29 = assay: as above; details: Streptococcus constellatus, T29, M18, read-out: Size of zone inhibition normalised to control, S. constellatus T29
Description: as §1, §2, §3, §4, §5

S. pyogenes 71-698 = assay: as above; details: Streptococcus pyogenes, 71698, M18, read-out: Size of zone inhibition normalised to control, S. pyogenes 71-698
Description: as §1, §2, §3, §4, §5

S. aureus A222 = assay: as above; details: Staphylococcus aureus, A222, M18, read-out: Size of zone inhibition normalised to control, S. aureus A222
Description: as §1, §2, §3, §4, §5

S. pneumoniae D39 = assay: as above; details: Streptococcus pneumoniae, D39, M18, read-out: Size of zone inhibition normalised to control, S. pneumoniae D39
Description: as §1, §2, §3, §4, §5

S. mutans OMZ175 = assay: as above; details: Streptococcus mutans, OMZ175, M18, read-out: Size of zone inhibition normalised to control, S. mutans OMZ175
Description: as §1, §2, §3, §4, §5

indicator strains = assay: Deferred antagonism assay, producer S. salivarius M18: total strains inhibited
Description: as §1, §2, §3, §4, §5

## O=C[C@H](O)[C@@H](O)[C@@H](O)[C@H](O)CO [Galactose, D-galactose]
L. lactis T-21
  L. lactis zone of inhibition: 9 mm
[1]; Galactose 0.5% w/w
  zone of inhibition at 0.5 % strength: 5 mm
[1]; Galactose 1.25% w/w
  zone of inhibition at 1.25 % strength: 0 mm
[1]; Galactose 1.7% w/w
  zone of inhibition at 1.7 % strength: 0 mm
[1]; Galactose 2.5% w/w
  zone of inhibition at 2.5 % strength: 0 mm
[1]; Galactose 3.3% w/w
  zone of inhibition at 3.3 % strength: 0 mm
[1]; Galactose 5% w/w
  zone of inhibition at 5 % strength: 0 mm
S. constellatus T29; Galactose 0.5% w/w
  zone of inhibition at 0.5 % strength: 0 mm
S. constellatus T29; Galactose 1.25% w/w
  zone of inhibition at 1.25 % strength: 8 mm
S. constellatus T29; Galactose 1.7% w/w
  zone of inhibition at 1.7 % strength: 0 mm
S. constellatus T29; Galactose 2.5% w/w
  zone of inhibition at 2.5 % strength: 16 mm
S. constellatus T29; Galactose 3.3% w/w
  zone of inhibition at 3.3 % strength: 22 mm
S. constellatus T29; Galactose 5% w/w
  zone of inhibition at 5 % strength: 17 mm
S. pyogenes 71-698; Galactose 0.5% w/w
  zone of inhibition at 0.5 % strength: 19.5 mm
S. pyogenes 71-698; Galactose 1.25% w/w
  zone of inhibition at 1.25 % strength: 13.5 mm
S. pyogenes 71-698; Galactose 1.7% w/w
  zone of inhibition at 1.7 % strength: 9.5 mm
S. pyogenes 71-698; Galactose 2.5% w/w
  zone of inhibition at 2.5 % strength: 16.5 mm
S. pyogenes 71-698; Galactose 3.3% w/w
  zone of inhibition at 3.3 % strength: 9.5 mm
S. pyogenes 71-698; Galactose 5% w/w
  zone of inhibition at 5 % strength: 9.5 mm
S. aureus A222; Galactose 0.5% w/w
  zone of inhibition at 0.5 % strength: 10 mm
S. aureus A222; Galactose 1.25% w/w
  zone of inhibition at 1.25 % strength: 6 mm
S. aureus A222; Galactose 1.7% w/w
  zone of inhibition at 1.7 % strength: 0 mm
S. aureus A222; Galactose 2.5% w/w
  zone of inhibition at 2.5 % strength: 0 mm
S. aureus A222; Galactose 3.3% w/w
  zone of inhibition at 3.3 % strength: 6 mm
S. aureus A222; Galactose 5% w/w
  zone of inhibition at 5 % strength: 0 mm
S. pneumoniae D39; Galactose 0.5% w/w
  zone of inhibition at 0.5 % strength: 8 mm
S. pneumoniae D39; Galactose 1.25% w/w
  zone of inhibition at 1.25 % strength: 5 mm
S. pneumoniae D39; Galactose 1.7% w/w
  zone of inhibition at 1.7 % strength: 0 mm
S. pneumoniae D39; Galactose 2.5% w/w
  zone of inhibition at 2.5 % strength: 6 mm
S. pneumoniae D39; Galactose 3.3% w/w
  zone of inhibition at 3.3 % strength: 2 mm
S. pneumoniae D39; Galactose 5% w/w
  zone of inhibition at 5 % strength: 0 mm
S. mutans OMZ175; Galactose 0.5% w/w
  zone of inhibition at 0.5 % strength: 16 mm
S. mutans OMZ175; Galactose 1.25% w/w
  zone of inhibition at 1.25 % strength: 0 mm
S. mutans OMZ175; Galactose 1.7% w/w
  zone of inhibition at 1.7 % strength: 0 mm
S. mutans OMZ175; Galactose 2.5% w/w
  zone of inhibition at 2.5 % strength: 0 mm
S. mutans OMZ175; Galactose 3.3% w/w
  zone of inhibition at 3.3 % strength: 6 mm
S. mutans OMZ175; Galactose 5% w/w
  zone of inhibition at 5 % strength: 0 mm
Indicator strains; Galactose 0.5% w/w
  Total stains inhibited: 5/7
Indicator strains; Galactose 1.25% w/w
  Total stains inhibited: 4/7
Indicator strains; Galactose 1.7% w/w
  Total stains inhibited: 1/7
Indicator strains; Galactose 2.5% w/w
  Total stains inhibited: 2/7
Indicator strains; Galactose 3.3% w/w
  Total stains inhibited: 5/7
Indicator strains; Galactose 5% w/w
  Total stains inhibited: 2/7
